# What was measured:
# [1] = system: normal human dermal fibroblasts (NHDFs); test: WST-1 cell proliferation assay; type: cell-based; conditions: 48 h
# Method: Normal human dermal fibroblasts (NHDFs) from a 37- and […] were obtained commercially from Cambrex (Walkerville, United States) and Coriell (New Jersey, United States). The NHDFs were cultured in phenol red-free Dulbecco’s modified Eagle’s medium (DMEM; Thermo Fisher Scientific, Waltham, Massachusetts, United States) supplemented with 10% (v/v) FCS, 4 mM L-glutamine and 100,000 U/L penicillin, 100 mg/L Streptomycin, 0.25 mg/L amphotericin B (PAN Biotech, Aidenbach, Germany) at 37 °C, 5% CO2. The medium was changed twice a week until the cells reached 80% confluency. The NHDFs were subcultured with an expansion ratio of 1:3 using 0.05% trypsin (PAN Biotech, Aidenbach, Germany) and used until the ninth passage.
# The tetrazolium salt WST-1 (Roche, Basel, Swiss) was used for the spectrophotometric quantification of cell proliferation in response to various inhibitor concentrations. The cell proliferation assay was carried out according to the manufacturer’s instructions in a 96-well tissue culture plate with 1700 cells per cavity. Based on the inhibition studies, the cells were cultured in fully supplemented DMEM for 24 h then treated with celastrol or amphotericin B for an additional 48 h. The WST-1 reagent was added to the cell culture supernatant 4 h before the end of the treatment. The absorptions at 440 and 590 nm were measured at timepoints 0, 1, 2, 3 and 4 h after the addition of WST-1.
# XYLT1 mRNA expression = XYLT1 mRNA expression in NHDFs by qRT-PCR; type: cell-based, human; conditions: 48 h; for TGF-β1-mediated XYLT1 mRNA expression relative to TGF-β1 only: with TGF-β1 (5 μg/L)
# Method: A former established cell culture model was utilized to investigate the effect of putative XT-I inhibitors on NHDFs. The inhibition studies were carried out with final inhibitor concentrations of 0.5, 1.0, 2.0 or 4.0 μM diluted in fully supplemented DMEM. In brief, unless otherwise stated, NHDFs were cultivated with a low density of 50 cells per mm^2 on a hard tissue culture substrate (100 × 20 mm dish) in fully supplemented DMEM with or without additional TGF-β1 (5 μg/L) for 24 h, promoting their transdifferentiation into proto-myofibroblasts. Thereafter, cells were treated with celastrol or amphotericin B in the presence or absence of TGF-β1 (5 μg/L) for an additional 48 h. Negative controls treated with solvent only were included for every sampling time. The final DMSO content of 0.04% (v/v) was kept constant in all inhibition experiments. […]
# (§1) The RNA extraction from cell lysates and cDNA synthesis for mRNA and miRNA expression analysis were performed as described previously.
# (§2) Quantitative real-time polymerase chain reaction (qRT-PCR) analysis using a LightCycler 480 Instrument II system (Roche, Basel, Swiss) was performed as previously described. The qRT-PCR experiments were conducted with three biological and three technical replicates per donor-derived primary cell culture, unless otherwise stated. The intron-spanning primer sequences used are listed in [7] and Table 1. The geometric mean of the expression levels of the housekeeping genes SDHA, RPL13A and B2M were calculated for expression normalization. The relative target gene mRNA expressions were determined by the ΔΔCT method considering the PCR efficiency. All normalized gene expression levels shown were referred to the respective target gene expression of one primary cell culture sample for the relative comparison of multiple biological samples per experiment and figures.
# XYLT2 mRNA expression = XYLT2 mRNA expression in NHDFs by qRT-PCR; type: cell-based, human; conditions: 48 h
# Method: A former established cell culture model was utilized to investigate the effect of putative XT-I inhibitors on NHDFs. The inhibition studies were carried out with final inhibitor concentrations of 0.5, 1.0, 2.0 or 4.0 μM diluted in fully supplemented DMEM. In brief, unless otherwise stated, NHDFs were cultivated with a low density of 50 cells per mm^2 on a hard tissue culture substrate (100 × 20 mm dish) in fully supplemented DMEM with or without additional TGF-β1 (5 μg/L) for 24 h, promoting their transdifferentiation into proto-myofibroblasts. Thereafter, cells were treated with celastrol or amphotericin B in the presence or absence of TGF-β1 (5 μg/L) for an additional 48 h. Negative controls treated with solvent only were included for every sampling time. The final DMSO content of 0.04% (v/v) was kept constant in all inhibition experiments.
# as §1, §2
SMILES,cell proliferation (WST-1) compared to control ([1]; 2.0 μM),cell proliferation (WST-1) compared to control ([1]; 4.0 μM),cell proliferation (WST-1) compared to control ([1]; 0.5 and 1.0 μM),TGF-β1-mediated XYLT1 mRNA expression relative to TGF-β1 only (XYLT1 mRNA expression; 0.5 μM),"basal XYLT1 mRNA expression relative to control (XYLT1 mRNA expression; 0.5 μM, without TGF-β1)",TGF-β1-mediated XYLT1 mRNA expression relative to TGF-β1 only (XYLT1 mRNA expression; 1.0 μM),"basal XYLT1 mRNA expression relative to control (XYLT1 mRNA expression; 1.0 μM, without TGF-β1)",XYLT2 mRNA expression level (XYLT2 mRNA expression; 1.0 μM in the presence of TGF-β1 (5 μg/L)),cell proliferation (WST-1) compared to control ([1]; 0.5 to 2.0 μM),TGF-β1-mediated XYLT1 mRNA expression relative to TGF-β1 only (XYLT1 mRNA expression; 2.0 μM),"basal XYLT1 mRNA expression relative to DMSO control (XYLT1 mRNA expression; 2.0 μM, without TGF-β1)","XYLT2 mRNA expression level (XYLT2 mRNA expression; 2.0 μM with TGF-β1 (5 μg/L), versus TGF-β1 only)"
"CC1=C(O)C(=O)C=C2C1=CC=C1[C@@]2(C)CC[C@@]2(C)[C@@H]3C[C@](C)(C(=O)O)CC[C@]3(C)CC[C@]12C [Compound 68, Celastrol]",significantly decreased cell proliferation,significantly decreased cell proliferation,did not influence cellular proliferation,nor effected,neither changed,0.8 ± 0.07 fold,0.8 ± 0.06 fold,did not alter,–,–,–,–
"C[C@@H]1[C@H](O)[C@@H](C)/C=C/C=C/C=C/C=C/C=C/C=C/C=C/[C@H](O[C@@H]2O[C@H](C)[C@@H](O)[C@H](N)[C@@H]2O)C[C@@H]2O[C@](O)(C[C@@H](O)C[C@@H](O)[C@H](O)CC[C@@H](O)C[C@@H](O)CC(=O)O[C@H]1C)C[C@H](O)[C@H]2C(=O)O [Compound 17, Amphotericin B]",–,reduced the proliferation of NHDFs significantly,–,0.9 ± 0.07 fold,0.6 ± 0.06 fold,0.8 ± 0.06 fold,0.6 ± 0.05 fold,–,did not influence cellular proliferation,0.7 ± 0.03 fold,0.6 ± 0.09 fold,did not differ
